Source: article PMC9730589, “Characterization of a novel AA3_1 xylooligosaccharide dehydrogenase from Thermothelomyces myriococcoides CBS 398.93” (Biotechnology for Biofuels and Bioproducts, 2022)

System: T1, TmXdhA
T1 construct: native full gene from cDNA (578 residues, GMC dehydrogenase domain only, no cytochrome or CBM1); ORF start MQTASKL by primer; SEC-purified, contaminated with an A. niger hydrolase (A0A370CB09)
Assay: spectrophotometric reduction of […],4-benzoquinone at […] nm, Michaelis-Menten fit
Type: biochemical, Thermothelomyces myriococcoides
Settings: 1 mM 1,4-benzoquinone, 50 mM ammonium acetate pH 5.5, 30 °C

| Structure (SMILES) | Km |
| --- | --- |
| OC[C@H]1O[C@@H](O[C@H]2[C@H](O)[C@@H](O)C(O)O[C@@H]2CO)[C@H](O)[C@@H](O)[C@@H]1O (stereo partly drawn) [C2, Cellobiose] | 360 ± 40 µM |
| OC[C@H]1O[C@@H](O[C@H]2[C@H](O)[C@@H](O)[C@H](O[C@H]3[C@H](O)[C@@H](O)C(O)O[C@@H]3CO)O[C@@H]2CO)[C@H](O)[C@@H](O)[C@@H]1O (stereo partly drawn) [C3, Cellotriose] | 430 ± 40 µM |
| OC[C@H]1O[C@@H](O[C@H]2[C@H](O)[C@@H](O)[C@H](O[C@H]3[C@H](O)[C@@H](O)[C@H](O[C@H]4[C@H](O)[C@@H](O)C(O)O[C@@H]4CO)O[C@@H]3CO)O[C@@H]2CO)[C@H](O)[C@@H](O)[C@@H]1O (stereo partly drawn) [C4, Cellotetraose] | 530 ± 40 µM |
| OC1OC[C@@H](O[C@@H]2OC[C@@H](O)[C@H](O)[C@H]2O)[C@H](O)[C@H]1O (stereo partly drawn) [X2, Xylobiose] | 160 ± 10 µM |
| OC1OC[C@@H](O[C@@H]2OC[C@@H](O[C@@H]3OC[C@@H](O)[C@H](O)[C@H]3O)[C@H](O)[C@H]2O)[C@H](O)[C@H]1O (stereo partly drawn) [X3, Xylotriose] | 110 ± 10 µM |
| OC1OC[C@@H](O[C@@H]2OC[C@@H](O[C@@H]3OC[C@@H](O[C@@H]4OC[C@@H](O)[C@H](O)[C@H]4O)[C@H](O)[C@H]3O)[C@H](O)[C@H]2O)[C@H](O)[C@H]1O (stereo partly drawn) [X4, Xylotetraose] | 130 ± 10 µM |
